What is called IC50 is the concentration needed to halve the response being measured. High values mean a need for much substance, low ones inhibition by little substance.

The test system of data set [1] is MCF-7 (breast cancer). Kind of data set: MTT cell viability assay, MCF-7. In kind it is cell-based, human. The following applies: Homo sapiens, MCF7, 72 h, mean ± SD. A general note: Tetrazolium assays rely on reduction of a dye to a coloured formazan, in cell work by metabolically active cells.
The subject of data set [2] is MOLT-4. Kind of data set: NCI-60 single dose screen, MOLT-4. The class given is cell-based. To be noted: Homo sapiens, Leukemia, single concentration 10^−5 M, read-out: IGP (inhibition growth percent) MOLT-4. An outline of the steps:
(§1)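 Growth inhibition is the reported read-out, obtained when the National Cancer Institute exposed the panel lines to compound at one concentration of 10 μM following its standard NCI-60 DTP protocol.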

For data set [3], the system named is RPMI-8226. Nature of the data set: NCI-60 single dose screen, RPMI-8226. The class given is cell-based. The following applies: Homo sapiens, RPMI-8226, Leukemia; single concentration 10^−5 M; read-out: IGP (inhibition growth percent) RPMI-8226. An outline of the steps:
as §1

Data set [4] relates to SR. Nature of the data set: NCI-60 single dose screen, SR. In kind it is cell-based. To be noted: Homo sapiens, Leukemia, single concentration 10^−5 M, read-out: IGP (inhibition growth percent) SR. The essentials: as §1
In data set [5] the test system is A549/ATCC. Kind of data set: NCI-60 single dose screen, A549/ATCC. The class given is cell-based. To be noted: Homo sapiens, A549, NSCLC; single concentration 10^−5 M; read-out: IGP (inhibition growth percent) A549/ATCC. An outline of the steps: as §1
Data set [6] concerns HOP-92. Kind of data set: NCI-60 single dose screen, HOP-92. The class given is cell-based. The following applies: Homo sapiens, NSCLC, single concentration 10^−5 M, read-out: IGP (inhibition growth percent) HOP-92. The essentials:
as §1

Data set [7] concerns UO-31. Kind of data set: NCI-60 single dose screen, UO-31. To be noted: Homo sapiens, Renal cancer, single concentration 10^−5 M, read-out: IGP (inhibition growth percent) UO-31. The class given is cell-based. An outline of the steps: as §1
The test system of data set [8] is PC-3. Nature of the data set: NCI-60 single dose screen, PC-3. The class given is cell-based. To be noted: Homo sapiens, Prostate cancer, single concentration 10^−5 M, read-out: IGP (inhibition growth percent) PC-3. An outline of the steps:
as §1

In data set [9] the test system is MCF-7. Kind of data set: NCI-60 single dose screen, MCF-7. To be noted: Homo sapiens, MCF7; Breast cancer; single concentration 10^−5 M; read-out: IGP (inhibition growth percent) MCF-7. The class given is cell-based. An outline of the steps:
as §1

Data set [10] can be described thus: Metabolic stability in human liver microsomes with NADPH. The class given is in vitro ADME. The following applies: pooled human liver microsomes, pH 7.4, human liver microsomes 0.5 mg/cm^3, NADPH 1 mM, 10 μM compound, 37 °C, read-out: in vitro metabolic half-life t1/2. (Liver microsomes are vesicles of endoplasmic reticulum, rich in cytochrome P450 enzymes.)

As for `O=C(Nc1ccccc1)c1cc(S(=O)(=O)Nc2nc(-c3ccccc3)c3ccccc3n2)c(SCc2ccccc2)cc1Cl` [Compound 18, 2-Benzylthio-4-chloro-5-phenylcarbamoyl-N-(4-phenylquinazolin-2-yl)benzenesulfonamide], in data set [1], the IC50 was 46 ± 1 µM. Further, the inhibition at 10 µM is 36% in [2]; around 50% in [3]; 28% in [4]; around 50% in data set [5]; 26% in data set [6]; 3% in data set [7]. In addition, the figures for the inhibition at 10 µM in [8] and in data set [9] were 24% and 14%, respectively. Besides, the half-life at 10 μM in data set [10] came out at 11.2 min.

As for `O=C(Nc1ccc(Cl)cc1)c1cc(S(=O)(=O)Nc2nc(-c3ccccc3)c3ccccc3n2)c(SCc2ccccc2)cc1Cl` [Compound 22, 2-Benzylthio-4-chloro-5-(4-chlorophenylcarbamoyl)-N-(4-phenylquinazolin-2-yl)benzenesulfonamide], the IC50 in [1] was 53 ± 1 µM. Also, the inhibition at 10 µM in data set [2] is 52%; in [3], around 50%; in [4], 40%; in data set [5], around 50%; in data set [6] it was 34%; in [7], 35%. Also, the inhibition at 10 µM is 44% in data set [8] and 20% in data set [9]. In addition, the half-life at 10 μM in data set [10] stood at 67.2 min.

The compound `Cc1ccc(NC(=O)c2cc(S(=O)(=O)Nc3nc(-c4ccccc4)c4ccccc4n3)c(SCc3ccccc3)cc2Cl)cc1` [Compound 24, 2-Benzylthio-4-chloro-5-(4-methylphenylcarbamoyl)-N-(4-phenylquinazolin-2-yl)benzenesulfonamide] showed an IC50 in data set [1] of 52 ± 3 µM. The inhibition at 10 µM in [2] is 21%; in data set [3], around 50%; in data set [4] it was 23%; in data set [5], around 50%; in data set [6], 26%; in [7], 25%. Also, the values for the inhibition at 10 µM in data set [8] and in data set [9] were 49% and 23%, respectively. The half-life at 10 μM in data set [10] was found to be 42.3 min.

The values above are taken from PMC6133092, “Synthesis of 2-alkylthio-N-(quinazolin-2-yl)benzenesulfonamide derivatives: anticancer activity, QSAR studies, and metabolic stability” (Monatshefte Fur Chemie, 2018).
